{"source": "ChEMBL document CHEMBL3881530", "about": "“Compounds and methods for inhibiting NHE-mediated antiport in the treatment of disorders associated with fluid retention or salt overload and gastrointestinal tract disorders” (2013)"}
{"system": "Rattus norvegicus", "test": "Effect on fecal water content in Sprague-Dawley rat at 3 mg/kg administered via oral gavage measured after 16 hrs relative to control", "format": "functional", "units": {"Activity": "%"}}
{"smiles": "CN1Cc2c(Cl)cc(Cl)cc2C(c2cccc(S(=O)(=O)NCCOCCOCCNC(=O)c3ccc(C(=O)NCCOCCOCCNS(=O)(=O)c4cccc(C5CN(C)Cc6c(Cl)cc(Cl)cc65)c4)cc3)c2)C1", "note": "(centres undefined)", "Activity": 117}
{"smiles": "CN1Cc2c(Cl)cc(Cl)cc2C(c2cccc(S(=O)(=O)NCCOCCOCCNC(=O)Nc3ccc(NC(=O)NCCOCCOCCNS(=O)(=O)c4cccc(C5CN(C)Cc6c(Cl)cc(Cl)cc65)c4)cc3)c2)C1", "note": "(centres undefined)", "Activity": 120}
{"smiles": "CN1Cc2c(Cl)cc(Cl)cc2[C@H](c2ccc(S(=O)(=O)NCCOCCOCCNC(=O)CCC(=O)NCCOCCOCCNS(=O)(=O)c3ccc([C@@H]4CN(C)Cc5c(Cl)cc(Cl)cc54)cc3)cc2)C1.Cl.Cl", "note": "(single isomer, unassigned)", "Activity": 124}
{"smiles": "CN1Cc2c(Cl)cc(Cl)cc2C(c2ccc(S(=O)(=O)NCCOCCOCCNC(=O)Nc3ccc(NC(=O)NCCOCCOCCNS(=O)(=O)c4ccc(C5CN(C)Cc6c(Cl)cc(Cl)cc65)cc4)cc3)cc2)C1", "note": "(centres undefined)", "Activity": 114}
{"smiles": "CN1Cc2c(Cl)cc(Cl)cc2C(c2cccc(S(=O)(=O)NCCOCCOCCOCCNC(=O)C(O)C(O)C(=O)NCCOCCOCCOCCNS(=O)(=O)c3cccc(C4CN(C)Cc5c(Cl)cc(Cl)cc54)c3)c2)C1", "note": "(single isomer, unassigned)", "Activity": 125}
{"smiles": "CN1Cc2c(Cl)cc(Cl)cc2C(c2ccc(S(=O)(=O)NCCOCCOCCNC(=O)CCC(=O)NCCOCCOCCNS(=O)(=O)c3ccc(C4CN(C)Cc5c(Cl)cc(Cl)cc54)cc3)cc2)C1", "note": "(centres undefined)", "Activity": 121}
{"smiles": "CN1Cc2c(Cl)cc(Cl)cc2C(c2ccc(S(=O)(=O)NCCOCCOCCNC(=O)COCC(=O)NCCOCCOCCNS(=O)(=O)c3ccc(C4CN(C)Cc5c(Cl)cc(Cl)cc54)cc3)cc2)C1", "note": "(centres undefined)", "Activity": 118}
{"smiles": "CN1Cc2c(Cl)cc(Cl)cc2C(c2cccc(S(=O)(=O)NCCOCCOCCNC(=O)NCCCCNC(=O)NCCOCCOCCNS(=O)(=O)c3cccc(C4CN(C)Cc5c(Cl)cc(Cl)cc54)c3)c2)C1", "note": "(centres undefined)", "Activity": 128}
{"smiles": "CN1Cc2c(Cl)cc(Cl)cc2[C@H](c2ccc(S(=O)(=O)NCCOCCOCCOCCNC(=O)NCCOCCOCCOCCNS(=O)(=O)c3ccc([C@@H]4CN(C)Cc5c(Cl)cc(Cl)cc54)cc3)cc2)C1", "note": "(mixture of isomers)", "Activity": 120}
